In patent US20140142333A1, “NOVEL ANILINE DERIVATIVES AND USE THEREOF” (NEOMICS Co, Ltd., priority 2011, published 2014):

Tests used:
[1] = tested on: NCI-H460 cells; test: nude mouse transplanted with NCI-H460 cells, tumor growth inhibition; assay type: in vivo; conditions: salt form, 50 mg/kg once a day, 27 days
Procedure: A nude mouse transplanted with NCI-H460 cells (human-derived lung cancer cell line) was administered with the […], through intra-abdominal cavity and intra-subcutaneous injection. Then, a growth inhibiting effect of a tumor was tested. Mice were divided into three groups such as a negative control group, and groups administered with a test material in doses of 50 and 100 mg/kg. Each group included 10 mice. The negative control group was administered with a mixture solution containing DMSO (excipient), Tween80, PEG400, and injection water, and the groups administered with the test material in doses of 50 mg/kg were administered with the inventive compound once a day, for 27 days including an autopsy day, 28 times in total (4 times for intra-abdominal cavity injection and 24 times for intra-subcutaneous injection.
During the observation period, general symptoms were observed once a day, and the body weight of an animal and the volume of a tumor were measured twice a week. On the day before autopsy, all individuals were fasted for 18 hours or more. On the day of autopsy, 0.5, 1 and 2 hours 1 after the test material was administered, from 3 mice, 3 mice and 4 mice from respective groups, blood was collected and tumor was extracted.
The collected blood was placed in an EDTA-containing tube, and centrifuged to separate plasma. The extracted tumor was weighed. Half of the plasma and the tumor were rapidly frozen by liquid nitrogen and placed in a frozen state, and the rest were fixed with 10% neutral buffered formalin solution and sent to a test client.

[2] = tested on: NCI-H460; test: MTT assay on lung cancer cell line NCI-H460; assay type: cell-based, human; conditions: 0.04 uM, 0.4 uM and 4 uM; 24, 48 and 72 hours; serum free RPMI; FIG. 6
Procedure: Lung cancer cell line, NCI-H460, was cultured in RPMI (HyQ RPMI-1640, Hyclone) medium of streptomycin, containing 10% fetal bovine serum and 1% penicillin for 48 hours, and transferred to a 96-well plate. 12 hours later, the medium was replaced by serum free RPMI medium, and then the cell line was treated with the compound of Formula 1 at a concentration of 0.04 uM, 0.4 uM and 4 uM. 24 hours, 48 hours, and 72 hours later, MTT assay at each concentration was performed.

[3] = tested on: NCI-H460; test: FACS assay of apoptosis in NCI-H460; assay type: cell-based, human; conditions: medium containing 2% FBS; FIG. 7
Procedure: Lung cancer cell line, NCI-H460, was cultured in RPMI (HyQ RPMI-1640, Hyclone) of streptomycin, containing 10% fetal bovine serum, and 1% penicillin. In order to investigate the effect of the inventive compound on a cell cycle, cells were treated with the inventive compound and cultured in medium containing 2% FBS. The cells were collected and subjected to FACS assay.

[4] = tested on: WI-26 cells; test: MTT assay on normal WI-26 cells (cytotoxicity); assay type: cell-based; conditions: MTT assay after 48 hours; data not shown
Procedure: As a result, 22 compounds were primarily screened. Normal cells, that is, WI-26 cells were treated with the 22 compounds.

## CCOC(=O)CC(=O)Nc1ccc(C(=O)O)cc1 [P.C]
[1]; FIG. 10
  body weight of mouse vs control group: no difference
[1]; FIG. 12
  tumors observed (photograph) vs control group: visibly significantly reduced
[1]; at autopsy, FIG. 11
  weight of tumor vs control group: significantly reduced
[1]; intra-abdominal and subcutaneous injection, FIG. 9
  volume of the tumor vs control group: significantly reduced
[2]
  cell death of lung cancer cells (MTT): cell death depending on treating time and concentration
[3]
  apoptosis rate of cancer cells (FACS): concentration-dependently improves apoptosis rate
[4]
  cytotoxicity in normal WI-26 cells: no cytotoxicity
